Reference: patent US5648379A (priority 1990, dated 1997)
Values after ≈ are worked out from the molar mass of the structure shown. “Also recorded” adds a separate entry of the source. Like-named read-outs stand apart in the source and are kept apart here.

Experiments:
[1] = tested on: Neuraminidase from Arthrobacter sialophilus; conditions: in vitro; Kumar et al. 1981, 1982; cited from earlier work
neuraminidase = conditions: cited from earlier work; for inhibition of neuraminidase: type of neuraminidase not identified
[2] = target: N2 influenza virus neuraminidase (Influenza A virus, UniProt P06820); assay: biochemical
Sequence of N2 influenza virus neuraminidase (P06820 whole entry, looked up): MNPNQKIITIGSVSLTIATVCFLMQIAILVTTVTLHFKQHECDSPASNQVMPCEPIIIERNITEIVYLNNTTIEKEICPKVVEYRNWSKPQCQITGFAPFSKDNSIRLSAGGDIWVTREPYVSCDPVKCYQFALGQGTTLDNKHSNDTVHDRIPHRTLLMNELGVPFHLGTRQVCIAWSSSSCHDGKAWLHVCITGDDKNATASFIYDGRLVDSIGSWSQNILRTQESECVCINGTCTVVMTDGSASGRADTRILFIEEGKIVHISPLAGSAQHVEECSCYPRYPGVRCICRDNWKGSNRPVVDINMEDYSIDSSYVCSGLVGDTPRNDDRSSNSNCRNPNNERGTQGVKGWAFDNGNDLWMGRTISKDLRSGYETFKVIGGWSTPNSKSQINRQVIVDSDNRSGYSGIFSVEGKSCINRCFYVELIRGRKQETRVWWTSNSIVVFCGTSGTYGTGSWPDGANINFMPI

[3] = tested on: Neuraminidase in at least some strains of influenza or parainfluenza viruses; conditions: in vitro; Zakstel'skaya et al. 1972; cited from earlier work
[4] = tested on: H2N2 influenza A virus (A/Sing/1/57); assay type: in vivo, mice; conditions: for % AUC (lung virus titre, compared to untreated mice): days 1-3; for titre of virus in lung tissue: intranasal, before and during challenge, 1 to 3 days after infection
[5] = tested on: influenza A/Singapore/1/57 (H2N2); assay: microbe, parasite or virus in culture; assay type: cell-based; conditions: H2N2, MDCK, 72 h, read-out: IC50 Plaque Reduction, Influenza A
[6] = tested on: Influenza B/Victoria/102/85; assay: microbe, parasite or virus in culture; assay type: cell-based; conditions: MDCK, 72 h, read-out: IC50 Plaque Reduction, Influenza B
N9 neuraminidase = N9 neuraminidase (Influenza A virus, UniProt P03472); assay: biochemical; conditions: read-out: Ki, inhibition of N9 neuraminidase
Sequence of N9 neuraminidase (P03472 whole entry, looked up): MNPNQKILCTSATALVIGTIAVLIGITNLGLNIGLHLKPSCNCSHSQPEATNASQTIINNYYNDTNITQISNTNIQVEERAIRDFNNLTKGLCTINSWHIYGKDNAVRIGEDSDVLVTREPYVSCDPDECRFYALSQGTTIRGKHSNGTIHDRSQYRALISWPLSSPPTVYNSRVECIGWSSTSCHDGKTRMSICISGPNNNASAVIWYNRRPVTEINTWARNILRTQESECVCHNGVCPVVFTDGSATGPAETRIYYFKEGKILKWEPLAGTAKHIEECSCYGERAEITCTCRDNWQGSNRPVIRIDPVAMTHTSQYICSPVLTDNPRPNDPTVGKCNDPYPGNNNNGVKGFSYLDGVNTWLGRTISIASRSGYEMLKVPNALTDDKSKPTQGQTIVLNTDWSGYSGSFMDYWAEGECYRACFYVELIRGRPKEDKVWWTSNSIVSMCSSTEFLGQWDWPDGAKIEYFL

influenza virus = assay: microbe, parasite or virus in culture; assay type: cell-based; conditions: unidentified influenza virus, read-out: IC50 plaque reduction
[7] = literature; cited from earlier work
[8] = N2, 37° C., read-out: Ki, inhibition of N2 neuraminidase
[9] = Experiment 1, 25 mg/kg intranasal
[10] = Experiment 2, 12.5 mg/kg intranasal
[11] = Experiment 3, 12.5 mg/kg intranasal

## CC(=O)N[C@H]1[C@H]([C@H](O)[C@H](O)CO)OC(C(=O)O)=C[C@H]1O [2,3-dehydro-4-epi-N-acetyl-neuraminic acid]
[1]
  inhibition of Arthrobacter sialophilus neuraminidase: inhibited in vitro

## N[C@H]1[C@H]([C@H](O)[C@H](O)CO)SC(C(=O)O)=C[C@@H]1O [2-deoxy-2,3-didehydro-6-thioneuraminic acid]
neuraminidase
  inhibition of neuraminidase: reported to inhibit neuraminidase

## CC(=O)N[C@H]1[C@H]([C@H](O)[C@H](O)CO)O[C@@H](C(=O)O)C[C@@H]1O [2-deoxy-N acetyl-α-D-neuraminic acid, 2-deoxy-N-acetyl-α-D-neuraminic acid, reference compound]
[2]; [8]
  Ki: 300 µM

## [N-]=[N+]=NC1(C(=O)O)C[C@H](O)[C@@H](N)[C@H]([C@H](O)[C@H](O)CO)S1 (stereo partly drawn) [2-α-azido-6-thio-neuraminic acid]
neuraminidase
  inhibition of neuraminidase: reported to inhibit neuraminidase

## O=C1CNC(=O)[C@H]([C@H](O)[C@H](O)CO)O1 [3-aza-2,3,4-trideoxy-4-oxo-D-arabinoctonic acid δ-lactone]
[3]
  inhibition of influenza or parainfluenza virus neuraminidase: inhibited in vitro

## CC(=O)N[C@@H]1C(=O)C=C(C(=O)O)O[C@H]1[C@H](O)[C@H](O)CO [5-acetamido-2,6-anhydro-2,3,5-trideoxy-D-manno-non-2-en-4-ulosonate]
[1]
  inhibition of Arthrobacter sialophilus neuraminidase: inhibited in vitro

## NC12CC3CC(CC(C3)C1)C2 [Amantadine]
[4]; [9]
  % AUC (lung virus titre, compared to untreated mice): 0.08%
[4]; [10]
  % AUC (lung virus titre, compared to untreated mice): 0.03%
[4]; Experiment 2, 25 mg/kg
  % AUC (lung virus titre, compared to untreated mice): 0.2%
[4]; [11]
  % AUC (lung virus titre, compared to untreated mice): 8.8%

## CC(=O)N[C@H]1[C@H]([C@H](O)[C@H](O)CO)OC(C(=O)O)=C[C@@H]1N=[N+]=[N-] [Compound 4, Sodium 5-Acetamido-4-azido-2,3,4,5-tetradeoxy-D-glycero-D-galacto-non-2-enopyranosonate]
[2]; [8]
  Ki: 2 µM

## CC(=O)N[C@H]1[C@H]([C@H](O)[C@H](O)CO)OC(C(=O)O)=C[C@@H]1N [Compound 6, Sodium 5-Acetamido-4-amino-2,3,4,5-tetradeoxy-D-glycero-D-galacto-non-2-enopyranosonate]
[5]
  IC50: 1.6 µM
[6]
  IC50: 1.6 µM
N9 neuraminidase
  Ki: 0.19 µM
[2]; [8]
  Ki: 0.06 µM
[2]; read-out: Ki, inhibition of N2 virus neuraminidase
  Ki: 0.01 µM
[4]; [9]
  % AUC (lung virus titre, compared to untreated mice): 0.06%
[4]
  titre of virus in lung tissue: reduced the titre of virus in lung tissue

## C=CCN(CC=C)[C@H]1C=C(C(=O)O)O[C@@H]([C@H](O)[C@H](O)CO)[C@@H]1NC(C)=O [Compound 9, Sodium 5-Acetamido-4-N,N-diallylamino-2,3,4,5-tetradeoxy-D-glycero-D-galacto-non-2-enopyranosonate]
[2]; [8]
  Ki: 4 µM

## C=CCN[C@H]1C=C(C(=O)O)O[C@@H]([C@H](O)[C@H](O)CO)[C@@H]1NC(C)=O [Compound 11, Sodium 5-Acetamido-4-N-allylamino-2,3,4,5-tetra-deoxy-D-glycero-D-galacto-non-2-enopyranosonate]
N9 neuraminidase
  Ki: 2.5 µM
[2]; [8]
  Ki: 2.5 µM

## COC(=O)C1=C[C@@H](N)[C@@H](NC(C)=O)[C@H]([C@H](OC(C)=O)[C@@H](COC(C)=O)OC(C)=O)O1 [Compound 12, Methyl 5-acetamido-7,8,9-tri-O-acetyl-4-amino-2,3,4,5-tetradeoxy-D-glycero-D-talo-non-2-enopyranosonate]
[2]; [8]
  Ki: ~3000 µM

## COC(=O)C1=C[C@H]2OC(C)=N[C@H]2[C@H]([C@H](OC(C)=O)[C@@H](COC(C)=O)OC(C)=O)O1 [Compound 13, Methyl 7,8,9-tri-O-acetyl-2,3,5-trideoxy-4',5'-dihydro-2'-methyloxazolo [5,4-d] D-glycero-D-talo-non-2-enopyranosonate]
[2]; [8]
  Ki: 30 µM

## CC(=O)N[C@H]1[C@H]([C@H](O)[C@H](O)CO)OC(C(=O)O)=C[C@H]1N [Compound 14, Sodium 5-Acetamido-4-amino-2,3,4,5-tetra deoxy-D-glycero-D-talo-non-2-enopyranosonate]
[5]
  IC50: 3 µM
[6]
  IC50: 1.2 µM
N9 neuraminidase
  Ki: 0.1 µM
[2]; [8]
  Ki: 0.1 µM
[4]; [11]
  % AUC (lung virus titre, compared to untreated mice): 21.1%
[4]
  titre of virus in lung tissue: reduced the titre of virus in lung tissue

## CC(=O)N[C@H]1[C@H]([C@H](O)[C@H](O)CO)OC(C(=O)O)=C[C@H]1N=[N+]=[N-] [Compound 17, Sodium 5-acetamido-4-azido-2,3,4,5-tetradeoxy-D-glycero-D-talo-non-2-enopyranosonate]
[2]; [8]
  Ki: 28 µM

## CN[C@H]1C=C(C(=O)O)O[C@@H]([C@H](O)[C@H](O)CO)[C@@H]1NC(C)=O [Compound 20, Sodium 5-acetamido-4-N-methylamino-2,3,4.5-tetradeoxy-D-glycero-D-galacto-non-2-enopyranosonate]
[2]; [8]
  Ki: 1.15 µM

## CC(=O)N[C@H]1[C@H]([C@H](O)[C@H](O)CO)OC(C(=O)O)=C[C@@H]1N(C)C [Compound 23, Sodium 5-acetamido-4-N,N-dimethylamino-2,3,4,5-tetradeoxy-D-glycero-D-galacto-non-2-enopyranosonate]
[2]; [8]
  Ki: 0.7 µM

## COC(=O)CN[C@H]1C=C(C(=O)OC)O[C@@H]([C@H](O)[C@H](O)CO)[C@@H]1NC(C)=O [Compound 25, Methyl 5-acetamido-4-N-methoxycarbonylmethylamino-2,3,4,5-tetradeoxy-D-glycero-D-galacto-non-2-enopyranosonate]
[2]; [8]
  Ki: 7 µM

## CC(=O)N[C@H]1[C@H]([C@H](O)[C@H](O)CO)OC(C(=O)O)=C[C@@H]1NCCO [Compound 29, Sodium 5-acetamido-4-N-2'-hydroxyethylamino-2,3,4,5-tetradeoxy-D-glycero-D-galacto-non-2-enopyranosonate]
[5]
  IC50: 60 µM
[6]
  IC50: 7 µM
N9 neuraminidase
  Ki: 1.6 µM
[2]; [8]
  Ki: 1.6 µM

## O=C(O)C1=C[C@H](O)[C@@H](O)[C@H]([C@H](O)[C@H](O)CO)O1 [Compound 35, Sodium 2,-3-dideoxy-D-glycero-D-galacto-non-2-enopyranosonate]
[2]; [8]
  Ki: 480 µM

## N[C@H]1[C@H]([C@H](O)[C@H](O)CO)OC(C(=O)O)=C[C@@H]1N [Compound 38, Sodium 4,5-Diamino-2,3,4,5-tetradeoxy-D-glycero-D-galacto-non-2-enopyranosonate]
[5]
  IC50: 11 µM
[6]
  IC50: 6.8 µM
[2]; [8]
  Ki: 0.65 µM

## COC(=O)C1=C[C@H](O)[C@@H](NC(C)=O)[C@H]([C@H](O)[C@H](O)CNC(C)=O)O1 [Compound 41, Methyl 5,9-diacetamido-2,3,5,9-tetradeoxy-D-glycero-D-galacto-non-2-enopyranosonate]
[2]; [8]
  Ki: 36 µM

## CC(=O)NC[C@@H](O)[C@@H](O)[C@@H]1OC(C(=O)O)=C[C@H](O)[C@H]1NC(C)=O [Compound 42, 5,9-diacetamido-2,3,5,9-tetradeoxy-D-glycero-D-galacto-non-2-enopyranosonicacid]
[2]; [8]
  Ki: 14.5 µM

## COC(=O)C1=C[C@H](O)[C@@H](NC(C)=O)[C@H]([C@H](O)[C@H](O)CC#N)O1 [Compound 43, Methyl 5-acetamido-9-cyano-2,3,5,9-tetradeoxy-D-glycero-D-galacto-non-2-enopyranosonate]
[2]; [8]
  Ki: ~3000 µM

## CC(=O)N[C@H]1[C@H]([C@H](O)[C@H](O)CC#N)OC(C(=O)O)=C[C@@H]1O [Compound 44, 5-Acetamido-9-cyano-2,3,5,9-tetradeoxy-D-glycero-D-galacto-non-2-enopyranosonic acid]
[2]; [8]
  Ki: 3 µM

## C=CCN(O)[C@H]1C=C(C(=O)O)O[C@@H]([C@H](O)[C@H](O)CO)[C@@H]1NC(C)=O [Compound 45, Sodium 5-acetamido-4-N-allyl-N-hydroxy-2,3,4,5-tetradeoxy-D-glycero-D-galacto-non-2-enopyranosonate]
[5]
  IC50: 4.7 µM
[6]
  IC50: 2.7 µM

## CC(=O)N[C@H]1[C@H]([C@H](O)[C@H](O)CO)OC(C(=O)O)=C[C@@H]1O [DANA, 2-deoxy-2,3-didehydro-N-acetylneuraminic acid]
[1]
  inhibition of Arthrobacter sialophilus neuraminidase: inhibited in vitro
Influenza virus
  IC50: 5 µg/mL (≈ 17.2 µM)
[4]; [9]
  % AUC (lung virus titre, compared to untreated mice): 0.18%
[4]; [10]
  % AUC (lung virus titre, compared to untreated mice): 2.0%
[4]; [11]
  % AUC (lung virus titre, compared to untreated mice): 48.0%
[4]
  titre of virus in lung tissue: reduced the titre of virus in lung tissue

## O=C(O)C1=C[C@H](O)[C@@H](NC(=O)C(F)(F)F)[C@H]([C@H](O)[C@H](O)CO)O1 [FANA, 2-deoxy-2,3-dehydro-N-trifluoroacetyl-neuraminic acid]
[7]
  anti-viral activity in vivo: not to possess in vivo anti-viral activity; also recorded: inactive in vivo
neuraminidase; literature
  activity among neuraminidase inhibitors of the DANA type: most active

## CC(=O)N[C@H]1[C@H]([C@H](O)[C@H](O)CO)OC(F)(C(=O)O)C(F)[C@@H]1O (stereo partly drawn) [N-acetyl-2,3-difluoro-α-D-neuraminic acid]
neuraminidase
  inhibition of neuraminidase: reported to inhibit neuraminidase

## CC(=O)NC1C(O)CC(OC2C(O)C(CO)OC(O)C2NC(C)=O)(C(=O)O)OC1C(O)C(O)CO [O-α-N-acetyl-D-neuraminosyl-)2→3)-2-acetamido-2-deoxy-D-glucose]
[3]
  inhibition of influenza or parainfluenza virus neuraminidase: inhibited in vitro

## NC(=O)c1ncn([C@@H]2O[C@H](CO)[C@@H](O)[C@H]2O)n1 [Ribavirin]
[4]; Experiment 2, 25 mg/kg
  % AUC (lung virus titre, compared to untreated mice): 29.8%
